Measured values: US20080064668A1, “1,3-Diacylated, 26,27-Alkyl/Haloakyl Vitamin D3 Compounds and Methods of Use Thereof” (BioXell S.p.A., priority 2003, published 2008)

Columns and labels:
ECV = experiment: Proliferation assay using bladder cancer cell lines, ECV; type: cell-based, human; conditions: Homo sapiens; 72 h culture, CyQuant proliferation assay
NOD mouse body weight = type: in vivo, mice
Experimental: (§1) 1,3-Di-O-acetyl-1,25-dihydroxy-16,23Z-diene-26,27-hexafluoro-19-nor-cholecalciferol (2) was dissolved in ethanol (1 mg/ml) and then diluted in miglyol 812. […]

RT4 = experiment: Proliferation assay using bladder cancer cell lines, RT4; type: cell-based, human; conditions: Homo sapiens, RT-4, 72 h, 72 h culture, CyQuant proliferation assay
Experimental: (§2) Bladder cancer cell lines (T24, RT112, HT1376 and RT4 are human bladder cancer cell lines; NHEK are normal human keratinocytes) were obtained from the European Collection of Cell Cultures (Salisbury, UK). Cells were plated at 3×10^3 per well, in flat bottomed 96-well plates in 100 μl of DMEM medium containing: 5% Fetal Clone I, 50 μg/l gentamicin, 1 mM sodium pyruvate and 1% non-essential amino acids. After culturing for 24 h at 37° C. in 5% CO2, to allow cells to adhere to the plates, VDR ligands (compounds (2), (4), (5) and other vitamin D3 analogs as shown in Table 4) were added at concentrations ranging from 100 μM to 0.3 μM in 100 μl of above-mentioned complete medium. After a further 72 h of culture, cell proliferation was measured using a fluorescence-based proliferation assay kit. (CyQuant Cell Proliferation Assay Kit, Molecular Probes, Eugene, Oreg., USA). The IC50 was calculated from the regression curve of the titration data.

non-obese (NOD)/Lt mice = experiment: Inhibition of Type 1 Diabetes development by VDR ligand administration; type: in vivo; conditions: for mice diabetic by 27 weeks of age: vehicle controls about 70%
Experimental: The non-obese (NOD)/Lt mice used for the experiments were purchased from Charles River Laboratories (Calco, Italy). All mice were kept under specific pathogen-free conditions. Glucose levels in the tail venous blood were quantified using a EUROFlash (Lifescan, Issy les Moulineaux, France). A diagnosis of diabetes was after two sequential glucose measurements higher than 200 mg/dl.
as §1

RT112 = experiment: Proliferation assay using bladder cancer cell lines, RT112; type: cell-based, human; conditions: Homo sapiens, RT-112, 72 h, 72 h culture, CyQuant proliferation assay
Experimental: as §2

[1] = Determination of Maximum Tolerated Dose (MTD)
Experimental: The maximum tolerated dose of the vitamin D3 compounds of the invention were determined in eight week-old female C57BL/6 mice (3 mice/group) dosed orally (0.1 ml/mouse) with various concentrations of Vitamin D3 analogs daily for four days. Analogs were formulated in miglyol for a final concentration of 0.01, 0.03, 0.1 0.3, 1, 3, 10, 30, 100 and 300 μg/kg when given at 0.1 ml/mouse p.o. daily. Blood for serum calcium assay was drawn by tail bleed on day five, the final day of the study.

CC(=O)OC1C/C(=C/C=C2\CCC[C@]3(C)C(C(C)C/C=C\C(O)(C(F)(F)F)C(F)(F)F)=CCC23)C[C@@H](OC(C)=O)C1 (stereo partly drawn) [Compound (2), 1,3-Di-O-acetyl-1,25-dihydroxy-16,23Z-diene-26,27-hexafluoro-19-nor-cholecalciferol]
IC50 (ECV): 55 µM
effect on body weight (NOD mouse body weight; 0.1 mg/Kg or 0.2 mg/Kg dose): did not affect body weight
NOD mouse body weight (NOD mouse body weight; 0.1 mg/kg p.o., week 8): 22.07 g
NOD mouse body weight (NOD mouse body weight; 0.1 mg/kg p.o., week 9): 22.98 g
NOD mouse body weight (NOD mouse body weight; 0.1 mg/kg p.o., week 10): 22.77 g
NOD mouse body weight (NOD mouse body weight; 0.1 mg/kg p.o., week 11): 23.4 g
NOD mouse body weight (NOD mouse body weight; 0.1 mg/kg p.o., week 12): 24.01 g
NOD mouse body weight (NOD mouse body weight; 0.1 mg/kg p.o., week 13): 23.69 g
NOD mouse body weight (NOD mouse body weight; 0.1 mg/kg p.o., week 14): 24.1 g
NOD mouse body weight (NOD mouse body weight; 0.1 mg/kg p.o., week 15): 24.6 g
NOD mouse body weight (NOD mouse body weight; 0.1 mg/kg p.o., week 16): 25 g
NOD mouse body weight (NOD mouse body weight; 0.1 mg/kg p.o., week 17): 24.6 g
NOD mouse body weight (NOD mouse body weight; 0.1 mg/kg p.o., week 18): 25.1 g
NOD mouse body weight (NOD mouse body weight; 0.1 mg/kg p.o., week 19): 25.6 g
NOD mouse body weight (NOD mouse body weight; 0.1 mg/kg p.o., week 20): 25.2 g
NOD mouse body weight (NOD mouse body weight; 0.1 mg/kg p.o., week 21): 25.6 g
NOD mouse body weight (NOD mouse body weight; 0.1 mg/kg p.o., week 22): 25.8 g
NOD mouse body weight (NOD mouse body weight; 0.1 mg/kg p.o., week 23): 25.5 g
NOD mouse body weight (NOD mouse body weight; 0.1 mg/kg p.o., week 24): 26.8 g
NOD mouse body weight (NOD mouse body weight; 0.1 mg/kg p.o., week 25): 26.4 g
NOD mouse body weight (NOD mouse body weight; 0.1 mg/kg p.o., week 26): 26.7 g
NOD mouse body weight (NOD mouse body weight; 0.1 mg/kg p.o., week 27): 26.5 g
NOD mouse body weight (NOD mouse body weight; 0.2 mg/kg p.o., week 8): 21.25 g
NOD mouse body weight (NOD mouse body weight; 0.2 mg/kg p.o., week 9): 21.75 g
NOD mouse body weight (NOD mouse body weight; 0.2 mg/kg p.o., week 10): 22.06 g
NOD mouse body weight (NOD mouse body weight; 0.2 mg/kg p.o., week 11): 22.99 g
NOD mouse body weight (NOD mouse body weight; 0.2 mg/kg p.o., week 12): 24.21 g
NOD mouse body weight (NOD mouse body weight; 0.2 mg/kg p.o., week 13): 24.4 g
NOD mouse body weight (NOD mouse body weight; 0.2 mg/kg p.o., week 14): 24.34 g
NOD mouse body weight (NOD mouse body weight; 0.2 mg/kg p.o., week 15): 24.53 g
NOD mouse body weight (NOD mouse body weight; 0.2 mg/kg p.o., week 16): 25.01 g
NOD mouse body weight (NOD mouse body weight; 0.2 mg/kg p.o., week 17): 24.33 g
NOD mouse body weight (NOD mouse body weight; 0.2 mg/kg p.o., week 18): 24.89 g
NOD mouse body weight (NOD mouse body weight; 0.2 mg/kg p.o., week 19): 25.29 g
NOD mouse body weight (NOD mouse body weight; 0.2 mg/kg p.o., week 20): 24.9 g
NOD mouse body weight (NOD mouse body weight; 0.2 mg/kg p.o., week 21): 25.41 g
NOD mouse body weight (NOD mouse body weight; 0.2 mg/kg p.o., week 22): 26.36 g
NOD mouse body weight (NOD mouse body weight; 0.2 mg/kg p.o., week 23): 25.8 g
NOD mouse body weight (NOD mouse body weight; 0.2 mg/kg p.o., week 24): 25.63 g
NOD mouse body weight (NOD mouse body weight; 0.2 mg/kg p.o., week 25): 26.12 g
NOD mouse body weight (NOD mouse body weight; 0.2 mg/kg p.o., week 26): 27.15 g
NOD mouse body weight (NOD mouse body weight; 0.2 mg/kg p.o., week 27): 26.56 g
IC50 (RT4): 20 µM
Percent Type 1 Diabetes Mellitus incidence (non-obese (NOD)/Lt mice; 0.1 ug/kg p.o., week 8): 2%
Percent Type 1 Diabetes Mellitus incidence (non-obese (NOD)/Lt mice; 0.1 ug/kg p.o., week 12): 2%
Percent Type 1 Diabetes Mellitus incidence (non-obese (NOD)/Lt mice; 0.1 ug/kg p.o., week 13): 2%
Percent Type 1 Diabetes Mellitus incidence (non-obese (NOD)/Lt mice; 0.1 ug/kg p.o., week 14): 2%
Percent Type 1 Diabetes Mellitus incidence (non-obese (NOD)/Lt mice; 0.1 ug/kg p.o., week 15): 2%
Percent Type 1 Diabetes Mellitus incidence (non-obese (NOD)/Lt mice; 0.1 ug/kg p.o., week 16): 2%
Percent Type 1 Diabetes Mellitus incidence (non-obese (NOD)/Lt mice; 0.1 ug/kg p.o., week 17): 10%
Percent Type 1 Diabetes Mellitus incidence (non-obese (NOD)/Lt mice; 0.1 ug/kg p.o., week 18): 10%
Percent Type 1 Diabetes Mellitus incidence (non-obese (NOD)/Lt mice; 0.1 ug/kg p.o., week 19): 10%
Percent Type 1 Diabetes Mellitus incidence (non-obese (NOD)/Lt mice; 0.1 ug/kg p.o., week 20): 10%
Percent Type 1 Diabetes Mellitus incidence (non-obese (NOD)/Lt mice; 0.1 ug/kg p.o., week 21): 20%
Percent Type 1 Diabetes Mellitus incidence (non-obese (NOD)/Lt mice; 0.1 ug/kg p.o., week 22): 30%
Percent Type 1 Diabetes Mellitus incidence (non-obese (NOD)/Lt mice; 0.1 ug/kg p.o., week 23): 30%
Percent Type 1 Diabetes Mellitus incidence (non-obese (NOD)/Lt mice; 0.1 ug/kg p.o., week 24): 40%
Percent Type 1 Diabetes Mellitus incidence (non-obese (NOD)/Lt mice; 0.1 ug/kg p.o., week 25): 40%
Percent Type 1 Diabetes Mellitus incidence (non-obese (NOD)/Lt mice; 0.1 ug/kg p.o., week 26): 40%
Percent Type 1 Diabetes Mellitus incidence (non-obese (NOD)/Lt mice; 0.1 ug/kg p.o., week 27): 40%
mice diabetic by 27 weeks of age (non-obese (NOD)/Lt mice; 0.1 mg/Kg per os 5×/week from 8 to 16 weeks of age): 30%
mice diabetic by 27 weeks of age (non-obese (NOD)/Lt mice; 0.2 mg/Kg per os 5×/week from 8 to 16 weeks of age): 40%
Percent Type 1 Diabetes Mellitus incidence (non-obese (NOD)/Lt mice; 0.2 mg/kg p.o., week 8): 1%
Percent Type 1 Diabetes Mellitus incidence (non-obese (NOD)/Lt mice; 0.2 mg/kg p.o., week 12): 1%
Percent Type 1 Diabetes Mellitus incidence (non-obese (NOD)/Lt mice; 0.2 mg/kg p.o., week 13): 1%
Percent Type 1 Diabetes Mellitus incidence (non-obese (NOD)/Lt mice; 0.2 mg/kg p.o., week 14): 1%
Percent Type 1 Diabetes Mellitus incidence (non-obese (NOD)/Lt mice; 0.2 mg/kg p.o., week 15): 1%
Percent Type 1 Diabetes Mellitus incidence (non-obese (NOD)/Lt mice; 0.2 mg/kg p.o., week 16): 1%
Percent Type 1 Diabetes Mellitus incidence (non-obese (NOD)/Lt mice; 0.2 mg/kg p.o., week 17): 1%
Percent Type 1 Diabetes Mellitus incidence (non-obese (NOD)/Lt mice; 0.2 mg/kg p.o., week 18): 1%
Percent Type 1 Diabetes Mellitus incidence (non-obese (NOD)/Lt mice; 0.2 mg/kg p.o., week 19): 1%
Percent Type 1 Diabetes Mellitus incidence (non-obese (NOD)/Lt mice; 0.2 mg/kg p.o., week 20): 10%
Percent Type 1 Diabetes Mellitus incidence (non-obese (NOD)/Lt mice; 0.2 mg/kg p.o., week 21): 10%
Percent Type 1 Diabetes Mellitus incidence (non-obese (NOD)/Lt mice; 0.2 mg/kg p.o., week 22): 10%
Percent Type 1 Diabetes Mellitus incidence (non-obese (NOD)/Lt mice; 0.2 mg/kg p.o., week 23): 20%
Percent Type 1 Diabetes Mellitus incidence (non-obese (NOD)/Lt mice; 0.2 mg/kg p.o., week 24): 20%
Percent Type 1 Diabetes Mellitus incidence (non-obese (NOD)/Lt mice; 0.2 mg/kg p.o., week 25): 20%
Percent Type 1 Diabetes Mellitus incidence (non-obese (NOD)/Lt mice; 0.2 mg/kg p.o., week 26): 30%
Percent Type 1 Diabetes Mellitus incidence (non-obese (NOD)/Lt mice; 0.2 mg/kg p.o., week 27): 30%
incidence of disease compared to controls (non-obese (NOD)/Lt mice; NOD/Lt female mice, 0.1 or 0.2 mg/Kg per os): significantly lower
IC50 (RT112): 1 µM
MTD at 4 days ([1]; female, C57BL/6, mouse, in vivo, po): 0.1 µg/kg
MTD relative to compound (1) ([1]; mice, MTD of (2) versus parent (1)): more than 300 times
MTD compared with the corresponding dihydroxy (parent) compound ([1]; versus (1) or (3)): significantly higher
